{"source": "ChEMBL document CHEMBL1151293", "about": "“End-Product Regulation of Ergot Alkaloid Formation in Intact Cells and Protoplasts of Claviceps Species, Strain SD 58” (1980)", "key": {"Claviceps [1]": {"system": "Claviceps", "experiment": "Inhibition of alkaloid biosynthesis in intact cells of Claviceps SD 58 assessed as incorporation of L-[methylene-14C] tryptophan at 3 mM", "type": "functional"}, "Claviceps [2]": {"system": "Claviceps", "experiment": "Inhibition of DMAT synthase in Claviceps SD 58 assessed as conversion of 1-14C]dimethylallylpyrophosphate to dimethylallyltryptophan at 3 mM after 5 days", "set-up": "scale not given: the % may be the effect or the level left"}, "Claviceps [3]": {"system": "Claviceps", "experiment": "Inhibition of alkaloid biosynthesis in Claviceps SD 58 protoplast assessed as incorporation of L-[methylene-14C] tryptophan at 4 mM relative to control", "type": "functional", "set-up": "scale not given: the % may be the effect or the level left"}, "Claviceps [4]": {"system": "Claviceps", "experiment": "Inhibition of alkaloid biosynthesis in intact cells of Claviceps SD 58 assessed as incorporation of L-[methylene-14C] tryptophan at 3 mM after 24 hrs relative to control", "type": "functional"}}, "data": [{"compound": "CN1CC(CO)=C[C@@H]2c3cccc4[nH]cc(c34)C[C@H]21", "note": "[listing 1 of 3 here]", "values": [{"measurement": "inhibition at 3000 µM", "setting": "Claviceps [1]", "value": 29, "unit": "%"}]}, {"compound": "CC1=C[C@@H]2c3cccc4[nH]cc(c34)C[C@H]2N(C)C1", "values": [{"measurement": "Activity", "setting": "Claviceps [2]", "value": 90, "unit": "%"}]}, {"compound": "CN1CC(CO)=C[C@@H]2c3cccc4[nH]cc(c34)C[C@H]21", "note": "[listing 2 of 3 here]", "values": [{"measurement": "Activity", "setting": "Claviceps [2]", "value": 70, "unit": "%"}]}, {"compound": "CN1CC(CO)=C[C@@H]2c3cccc4[nH]cc(c34)C[C@H]21", "note": "[listing 3 of 3 here]", "values": [{"measurement": "Activity", "setting": "Claviceps [3]", "value": 50, "unit": "%"}, {"measurement": "fold change (FC)", "setting": "Claviceps [4]", "value": 2}]}]}
